Columns and labels:
[1] = system: Human CNS Line B4; test: Effects of growth conditions on neuronal differentiation (morphology), Human CNS Line B4 (Table 3); type: cell-based; settings: clone B4, added to tet
Source text: (§1) To promote further neuronal maturation the effects of additional differentiating agents on clone B4 were examined.

[2] = system: clone B4; test: Immunoreactivity of clone B4 (BrdU, v-myc, MAP2a/b, GFAP, tau, NR1); type: cell-based, human
Source text: as §1

[3] = system: clone E5; test: Immunoreactivity of clone E5; type: cell-based, human; settings: clone E5, after differentiation
Source text: Clone E5 is an immature multi-potent cell. Clone E5 is multi-potential and likely represents an immortalized stem cell.

[4] = system: clone C2; test: Effects of EGF and PDGF on proliferation and survival, clone C2; type: cell-based, human; settings: added to growth medium with FGF-2 and 50% CM, EGF 40 ng/mL, PDGF 20 ng/mL
Experimental: (§2) EGF and PDGF Enhance Proliferation Rate and Cell Survival. To facilitate the expansion of the human CNS clones, we identified factors that increase the proliferation rate and/or cell survival. To examine the effects of EGF and PDGF on the proliferation and survival of the human CNS clones, 40 ng/mL EGF, 20 ng/mL PDGF or both were added to the standard growth medium, which already contained FGF-2 and 50% CM, and total cell number and BrdU uptake and incorporation were assessed as described above. For clone C2, EGF or PDGF addition increased the total cell number (FIG. 11A) by approximately 2-fold. This increase in cell number was due to enhanced cell viability (decreased cell death), since there were only slight increases in proliferation rate (assessed by BrdU uptake and incorporation, FIG. 11B). […] In the case of clone C10, EGF (but not PDGF) addition increased the total cell number (FIG. 12A) by approximately 40%. […] This increase in cell number was due, at least in part, to enhanced proliferation rates; BrdU uptake and incorporation increase about 2-fold with EGF or EGF+PDGF addition (FIG. 12B), and doubling times (based on cell counts as a function of days in vitro, data not shown) decreased from 3 days (no EGF or PDGF addition) to 2 days (EGF+PDGF addition). […]

[5] = system: clone C10; test: Effects of EGF and PDGF on proliferation and survival, clone C10; type: cell-based, human; settings: EGF 40 ng/mL, PDGF 20 ng/mL
Experimental: as §2

[6] = system: differentiated clone B4
Source text: B4 cells were differentiated by growth with tet+RA for 1 day, followed by tet, high K^+, NT-3 and BDNF for 6 days.

## CCCCCCCCCCCCCC(=O)O[C@@H]1[C@@H](C)[C@@]2(O)[C@@H](C=C(CO)C[C@]3(O)C(=O)C(C)=C[C@@H]23)[C@@H]2C(C)(C)[C@]12OC(C)=O [PMA, phorbol 12-myristate 13-acetate]
[1]
  effect on neuronal differentiation (morphology and immunocytochemical staining): prevented tet from inducing neuronal differentiation
[2]
  effect on cell lineage (MAP2a/b and GFAP immunoreactivities): strongly promoted astrocytic differentiation

## CN(C)[C@@H]1C(O)=C(C(N)=O)C(=O)[C@@]2(O)C(O)=C3C(=O)c4c(O)cccc4[C@@](C)(O)[C@H]3C[C@@H]12 [tetracycline]
[3]
  cells stained for GFAP: about 20%
  cells stained for MAP2a/b: about 50%

## PDGF: human recombinant platelet derived growth factor A/B
[4]
  increase in total cell number: approximately 2 fold
[5]
  effect on total cell number: not

## TNFα
[6]; TNFα 10 ng/mL
  DNA laddering upon gel analysis: increased DNA laddering
  percentage of apoptotic nuclei: increased
[6]; TNFα 0.05 or 0.2 ng/mL
  effect on neuronal viability: little effect on neuronal viability

## Z-Val-Ala-Asp-Ch2F [Z-VAD, reference compound]
[6]; Z-VAD at 80 μM, TNFα 10 ng/mL
  effect on TNFα-induced increase in DNA laddering: blocked the increase in DNA laddering
